# Results as given in patent publication US20100168420A1, “Taxol Derivatives With Antitumor Activity” (priority 2007, published 2010).
# Marks after values point to notes of the source that are not given here.
# Key:
# human A549 NSCLC tumors [1] = assay: Therapeutic effects of SHR-110008 and Taxotere against xenografts of human A549 NSCLC tumors in nude mice (Test Example 1); settings: for RTV X ± SD / T/C (%) / T/C (%) (weighing method) / Weight of tumors (g) x ± SD: 14th day; for T/C (%): from RTV; for T/C (%) (weighing method): from weight of tumors; for Weight of tumors (g) x ± SD: weighing method; for TV (X ± SD, mm^3) d0 / Body weight (g) d0: d0: time of the first dosage; for TV (X ± SD, mm^3) dn / Body weight (g) dn: dn: 14th day after the first dosage
# Protocol: Numbers of animals: 9 mice in control group, 5 mice in medication administration team.
# Animals were adapted in animal house for 1 week and were hypodermic inoculated human A549 NSCLC tumors. After tumors grew to 100-300 mm^3, mice were randomly divided into teams of SHR-110008 and Taxotere(d0). The doses of SHR-110008 were 10 and 16 mg/kg, and the doses of Taxotere were 12 and 19 mg/kg, separately. The route of administration is intravenous injection. SHR-110008(10 mg/kg) and Taxotere (12 mg/kg) were administrated on d0, d4, d8, a total of three times. SHR-110008(16 mg/kg) and Taxotere (19 mg/kg) were administrated on d0, d7, a total of two times. The volume of tumors and weights of the mice were measured for 2-3 times per week. The calculation formula of the volume of tumor (V) is: V=1/2×a×b^2, a: length of tumor, b: width of tumor.
# human A549 NSCLC tumors [2] = assay: Therapeutic effects of SHR1021-47 against xenografts of human A549 NSCLC tumors in nude mice (Test Example 2); format: in vivo, BALB/cA-nude mice; settings: 12 mg/kg iv, d0, d7
# Protocol: Animal species: BALB/cA-nude mice.
# Numbers of animals: 12 mice in control group, 6 mice in medication administration team.
# Cell culture: Human A549 NSCLC tumor cells were cultured in vitro remaining on logarithmic growth phase.
# Transplantation: Take the prepared cells to inoculate subcutaneously to the nude mice.
# Inoculation: Take the tumor lump to inoculate in one side of oxter on the condition of asepsis.
# Grouping and dose design: Measure the diameter of transplantation tumor by sliding caliper. After tumors grew to 100-250 mm^3, mice were randomly divided into groups of Shr1021-47 (8 mg/kg, 12 mg/kg, 16 mg/kg) and Taxotere (12 mg/kg).
# Administration route and time: iv administration. Shr1021-47 and Taxotere were administrated on d0, d7, 2 times in all. Measure the volume of tumor and weigh the mice 2-3 times per week.
# Calculate the relative tumor volume (RTV) according to the measurements. The formula is: RTVI=Vt/V0. V0 refers to the volume of tumor on d0; Vt refers to the volume of tumor on every measurement. The index of antitumor activity is T/C(%). The formula is: T/C(%)=TRTV/CRTV×100, TRTV: RTV of treatment group, CRTV: RTV of control group.
# [3] = under the suitable dose schedule, conclusion in words
# [4] = dn: 14th day after the first dosage
smiles,measurement,setting,value
CC(=O)O[C@@]12CO[C@@H]1C[C@H](O)[C@@]1(C)[C@@H]3OC(CN4C[C@@H]5C[C@H]4CO5)O[C@@H]3C3=C(C)[C@@H](OC(=O)[C@H](O)[C@@H](NC(=O)OC(C)(C)C)c4ccccc4)C[C@@](O)([C@@H](OC(=O)c4ccccc4)[C@H]21)C3(C)C (stereo partly drawn) [SHR-110008],RTV X ± SD,"human A549 NSCLC tumors [1]; 10 mg/kg i.v., d0, 4, 8",10.81 ± 1.79
same,T/C (%),"human A549 NSCLC tumors [1]; 10 mg/kg i.v., d0, 4, 8",48.8* %
same,T/C (%) (weighing method),"human A549 NSCLC tumors [1]; 10 mg/kg i.v., d0, 4, 8",38.6* %
same,Weight of tumors (g) x ± SD,"human A549 NSCLC tumors [1]; 10 mg/kg i.v., d0, 4, 8",1.59 ± 0.57 g
same,"TV (X ± SD, mm^3) d0","human A549 NSCLC tumors [1]; 10 mg/kg i.v., d0, 4, 8",129 ± 20 mm^3
same,"TV (X ± SD, mm^3) dn","human A549 NSCLC tumors [1]; 10 mg/kg i.v., d0, 4, 8",1383 ± 243 mm^3
same,RTV X ± SD,"human A549 NSCLC tumors [1]; 16 mg/kg i.v., d0, 7",4.41 ± 2.43
same,T/C (%),"human A549 NSCLC tumors [1]; 16 mg/kg i.v., d0, 7",19.9* %
same,T/C (%) (weighing method),"human A549 NSCLC tumors [1]; 16 mg/kg i.v., d0, 7",74.1* %
same,Weight of tumors (g) x ± SD,"human A549 NSCLC tumors [1]; 16 mg/kg i.v., d0, 7",0.67 ± 0.23 g
same,"TV (X ± SD, mm^3) d0","human A549 NSCLC tumors [1]; 16 mg/kg i.v., d0, 7",143 ± 38 mm^3
same,"TV (X ± SD, mm^3) dn","human A549 NSCLC tumors [1]; 16 mg/kg i.v., d0, 7",612 ± 340 mm^3
same,therapeutic effect compared with Taxotere,human A549 NSCLC tumors [1]; [3],better than that of Taxotere
same,toxicity compared with Taxotere,human A549 NSCLC tumors [1]; [3],better than that of Taxotere
CC(=O)O[C@@]12CO[C@@H]1C[C@H](O)[C@@]1(C)C(=O)[C@H](O)C3=C(C)[C@@H](OC(=O)[C@H](O)[C@@H](NC(=O)OC(C)(C)C)c4ccccc4)C[C@@](O)([C@@H](OC(=O)c4ccccc4)[C@H]21)C3(C)C [Taxotere],RTV X ± SD,human A549 NSCLC tumors [2]; 14th day,11.2 ± 6.0
same,T/C (%),"human A549 NSCLC tumors [2]; 14th day, TRTV/CRTV×100",78.3%
same,Body weight (g) d0,human A549 NSCLC tumors [2]; d0: time of the first dosage,20.7 g
same,"TV (X ± SD, mm^3) d0",human A549 NSCLC tumors [2]; d0: time of the first dosage,156 ± 20 mm^3
same,Body weight (g) dn,human A549 NSCLC tumors [2]; [4],15.6 g
same,"TV (X ± SD, mm^3) dn",human A549 NSCLC tumors [2]; [4],1679 ± 749 mm^3
same,RTV X ± SD,"human A549 NSCLC tumors [1]; 12 mg/kg i.v., d0, 4, 8",8.65 ± 5.83
same,T/C (%),"human A549 NSCLC tumors [1]; 12 mg/kg i.v., d0, 4, 8",39.1* %
same,T/C (%) (weighing method),"human A549 NSCLC tumors [1]; 12 mg/kg i.v., d0, 4, 8",51.7* %
same,Weight of tumors (g) x ± SD,"human A549 NSCLC tumors [1]; 12 mg/kg i.v., d0, 4, 8",1.25 ± 0.71 g
same,Body weight (g) d0,"human A549 NSCLC tumors [1]; 12 mg/kg i.v., d0, 4, 8",17.6 g
same,"TV (X ± SD, mm^3) d0","human A549 NSCLC tumors [1]; 12 mg/kg i.v., d0, 4, 8",140 ± 24 mm^3
same,Body weight (g) dn,"human A549 NSCLC tumors [1]; 12 mg/kg i.v., d0, 4, 8",14.1 g
same,"TV (X ± SD, mm^3) dn","human A549 NSCLC tumors [1]; 12 mg/kg i.v., d0, 4, 8",1149 ± 627 mm^3
same,RTV X ± SD,"human A549 NSCLC tumors [1]; 19 mg/kg i.v., d0, 7",7.13 ± 6.00
same,T/C (%),"human A549 NSCLC tumors [1]; 19 mg/kg i.v., d0, 7",32.2* %
same,T/C (%) (weighing method),"human A549 NSCLC tumors [1]; 19 mg/kg i.v., d0, 7",57.9* %
same,Weight of tumors (g) x ± SD,"human A549 NSCLC tumors [1]; 19 mg/kg i.v., d0, 7",1.09 ± 0.73 g
same,Body weight (g) d0,"human A549 NSCLC tumors [1]; 19 mg/kg i.v., d0, 7",17.7 g
same,"TV (X ± SD, mm^3) d0","human A549 NSCLC tumors [1]; 19 mg/kg i.v., d0, 7",134 ± 19 mm^3
same,Body weight (g) dn,"human A549 NSCLC tumors [1]; 19 mg/kg i.v., d0, 7",13.0 g
same,"TV (X ± SD, mm^3) dn","human A549 NSCLC tumors [1]; 19 mg/kg i.v., d0, 7",902 ± 736 mm^3
